Measured values taken from patent US20240156856A1, “NOVEL APPLICATIONS OF HYALURONIC ACID FOR TREATMENT OF PAIN AND PRURITIS” (THE REGENTS OF THE UNIVERSITY OF CALIFORNIA, priority 2022, published 2024).

What was measured:
[1] = test system: rats with oxaliplatin CIPN; experiment: Oxaliplatin CIPN mechanical hyperalgesia, Randall-Selitto paw-withdrawal test; assay type: in vivo, Sprague-Dawley rats; conditions: for CIPN hyperalgesia, effect of hyaluronan molecular weight range: male rats with oxaliplatin CIPN, topical, combined with DMSO
Method: (§1) Experimental animals. Experiments were performed on 220-400 g male and female Sprague-Dawley rats, purchased from Charles River Laboratories (Hollister, CA, USA), housed three per cage, under a 12-hour light/dark cycle, in a temperature- and humidity-controlled animal care facility at the University of California, San Francisco. Food and water were available ad libitum. Experimental protocols were approved by the University of California, San Francisco, Institutional Animal Care and Use Committee, and adhered to the National Institutes of Health Guidelines for the care and use of laboratory animals.
(§2) Measurement of nociceptive threshold. Mechanical nociceptive threshold was quantified with an Ugo Basile Analgesymeter (Stoelting, Wood Dale, IL, USA), used to perform the Randall-Selitto paw-withdrawal test [61; 68; 69]. This device uses a dome-shaped plinth to apply a mechanical force that increases linearly with time, to the dorsum of a rat's hindpaw. To perform the Randall-Selitto paw-withdrawal test, rats were placed in cylindrical acrylic restrainers with lateral ports that allow access to the hind paw, as described previously. Rats were acclimatized to the testing procedure by placing them in restrainers for 1 h per day for 3 consecutive daily training sessions, and for 30-40 min prior to experiments.
(§3) Mechanical nociceptive threshold is defined as the force, in grams, applied by the plinth to the dorsum of the hindpaw, at which a rat withdraws its paw from the stimulus. Baseline paw-withdrawal threshold is defined as the mean of three readings taken before administration of test agents. To minimize experimenter bias, individuals conducting experiments were blinded to experimental treatments. Each experiment was performed on a different group of rats. Data are presented as mechanical nociceptive threshold, in grams (g) or percentage change from preintervention baseline.
(§4) Hyaluronans were initially dissolved in distilled water (dH2O) at a concentration of 10 μg/μL, stock solution, and further diluted by adding DMSO with three final concentrations of hyaluronan (1, 2 and 4 μg/μL), protamine or terpene; unless otherwise stated, the final concentration of DMSO was 75%. The DMSO vehicle was 75% DMSO in 0.9% saline. In one experiment, 500-1200 kDa hyaluronan was administered topically in 0.9% saline vehicle. PGE2 was dissolved in 0.9% saline at the same final concentration that we previously injected intradermally (100 ng/5 μL). In the experiments in which hyaluronan was dissolved in protamine or terpene vehicle, protamine was first dissolved in distilled water (dH2O) to a concentration of 5 μg/μ1, stock solution of hyaluronan was combined with protamine at the final concentration of 2 μg/μ1, in a volume of 3 μl, for topical administration; terpene was first dissolved in dH2O at the concentration of 2 μg/μ1, then hyaluronan was dissolved in stock solution of terpene to its final concentration of 2 μg/μ1, in a volume of 3 μl, for topical administration).
Oxaliplatin CIPN: Oxaliplatin was freshly dissolved in 0.9% saline at a concentration of 2 mg/mL just prior to its tail vein intravenous (i.v.) administration (1 mL/kg), to rats briefly anesthetized with isoflurane (2.5% in O2).
Hyaluronans (30 μL) were administered topically on the dorsum of the hind paw, dispensed from a P200 pipette (Gilson, Middleton, WI, USA) with a plastic pipette tip and then spread manually. […]
Before use, ODNs were reconstituted in nuclease-free 0.9% saline and then administered by the intrathecal (i.t.) route. As described previously, rats were anesthetized with isoflurane (2.5% in O2) and 120 μg of ODN, in a volume of 20 μL, injected i.t., using a syringe ([…]) attached to a 29-gauge hypodermic needle that was inserted into the subarachnoid space, between the L4 and L5 vertebrae. The i.t. site of the injectate was confirmed by a sudden flick of the rat's tail, a reflex evoked by subarachnoid space access and bolus i.t. injection. […]

[2] = test system: rats with bortezomib CIPN; experiment: Bortezomib CIPN mechanical hyperalgesia, Randall-Selitto paw-withdrawal test; assay type: in vivo, Sprague-Dawley rats; conditions: male rats; bortezomib 0.2 mg/kg i.v., 4 doses, day 7
Method: as §1, §2
Mechanical nociceptive threshold is defined as the force, in grams, applied by the plinth to the dorsum of the hindpaw, at which a rat withdraws its paw from the stimulus. Baseline paw-withdrawal threshold is defined as the mean of three readings taken before administration of test agents. To minimize experimenter bias, individuals conducting experiments were blinded to experimental treatments. Each experiment was performed on a different group of rats. Data are presented as mechanical nociceptive threshold, in grams (g) or percentage change from preintervention baseline. […]

[3] = test system: 5-HT-induced scratching behavior in rats; experiment: 5-HT-induced scratching (itch) behavior; assay type: in vivo; conditions: topical 100 μg in 50 μl 75% DMSO in water, 30 and 5 mins before 5-HT 200 μg i.d.
Method: Topical hyaluronan attenuates itch behavior in rats. Intradermal administration of serotonin (5-HT) elicited acute scratching behavior, using the method of Nojima and Carstens {Nojima and Carstens, 2003, #99335; PMID: 12814838}. Rats were acclimated to a testing chamber for 30 min, and then briefly anesthetized with 2% isoflurane, during which the fur over the nape of the neck was shaved, and 5-HT (200 μg in 10 μl 0.9% saline vehicle) injected with a 30 gauge needle. In the topical hyaluronan group, hyaluronan (100 μg in 50 μl 75% DMSO in water vehicle) was applied to the skin 30 mins and again 5 mins before administration of 5-HT. Rats were placed back into testing chambers and their behavior video recorded for 40 min. Number of hind paw scratches directed at the injection site were counted by watching video playback at half normal speed, and total number of scratches in 2-min intervals recorded. Rats were treated with 5-HT alone and topical hyaluronan with 5-HT, with 4 days between experimental sessions, allowing for use of paired t-tests to compare data. Data are presented as cumulative number of scratches (FIG. 9A), and as total scratches over the 40-min observation period (FIG. 9B). […] See also, FIG. 10, which includes additional data showing that topical hyaluronan attenuates 5-HT-induced scratching behavior. […] Data are presented as cumulative number of scratches.

[4] = test system: rats with paclitaxel CIPN; experiment: Paclitaxel CIPN mechanical hyperalgesia, Randall-Selitto paw-withdrawal test; assay type: in vivo, Sprague-Dawley rats; conditions: male rats; paclitaxel 1 mg/kg i.p., 4 doses, day 7
Method: as §1, §2, §3, §4
Paclitaxel CIPN: Paclitaxel was dissolved in Cremophor EL and ethanol (1:1) [1; 6; 20; 22] and diluted in 0.9% saline to a concentration of 1 mg/mL, just prior to its intraperitoneal (i.p.) administration (1 mg/kg, i.p.) [19; 42] to rats briefly anesthetized with isoflurane (2.5% in O2), every other day for a total of 4 doses.
Hyaluronans (30 μL) were administered topically on the dorsum of the hind paw, dispensed from a P200 pipette (Gilson, Middleton, WI, USA) with a plastic pipette tip and then spread manually.
Antisense oligodeoxynucleotides (ODNs).
Before use, ODNs were reconstituted in nuclease-free 0.9% saline and then administered by the intrathecal (i.t.) route. As described previously, rats were anesthetized with isoflurane (2.5% in O2) and 120 μg of ODN, in a volume of 20 μL, injected i.t., using a syringe ([…]) attached to a 29-gauge hypodermic needle that was inserted into the subarachnoid space, between the L4 and L5 vertebrae. […]

[5] = test system: rats; conditions: previously shown; cited from earlier work
[6] = test system: PGE2 hyperalgesia in male and female rats; experiment: PGE2-induced mechanical hyperalgesia, Randall-Selitto paw-withdrawal test; assay type: in vivo, Sprague-Dawley rats; conditions: 100 ng intradermally, dorsum of hind paw, male and female rats
Method: as §1, §2, §3
Hyaluronans were initially dissolved in distilled water (dH2O) at a concentration of 10 μg/μL, stock solution, and further diluted by adding DMSO with three final concentrations of hyaluronan (1, 2 and 4 μg/μL), protamine or terpene; unless otherwise stated, the final concentration of DMSO was 75%. The DMSO vehicle was 75% DMSO in 0.9% saline. In one experiment, 500-1200 kDa hyaluronan was administered topically in 0.9% saline vehicle. PGE2 was dissolved in 0.9% saline at the same final concentration that we previously injected intradermally (100 ng/5 μL). […]

hyaluronan [300-500 kDa hyaluronan]
CIPN hyperalgesia, effect of hyaluronan molecular weight range [1]: produced robust anti-hyperalgesia, of similar magnitude and duration

O=C1[O][Pt]2([NH][C@@H]3CCCC[C@H]3[NH]2)[O]C1=O [Oxaliplatin, oxaliplatin, reference compound]
mechanical nociceptive threshold after chemotherapy ([1]; male rats, oxaliplatin 2 mg/kg i.v., day 7): decreased mechanical nociceptive threshold

CC(C)C[C@H](NC(=O)[C@H](Cc1ccccc1)NC(=O)c1cnccn1)B(O)O [Bortezomib, bortezomib, reference compound]
mechanical nociceptive threshold after chemotherapy [2]: decreased mechanical nociceptive threshold

hyaluronan [70-120 kDa hyaluronan]
CIPN hyperalgesia, effect of hyaluronan molecular weight range [1]: did not attenuate CIPN hyperalgesia

hyaluronan
number of 5-HT scratches over 40 min [3]: significantly attenuated the number of 5-HT scratches

hyaluronan [1500-1750 kDa hyaluronan]
CIPN hyperalgesia, effect of hyaluronan molecular weight range [1]: produced robust anti-hyperalgesia, of similar magnitude and duration

CC(=O)O[C@H]1C(=O)[C@@]2(C)[C@H]([C@H](OC(=O)c3ccccc3)[C@]3(O)C[C@H](OC(=O)[C@H](O)[C@@H](NC(=O)c4ccccc4)c4ccccc4)C(C)=C1C3(C)C)[C@]1(OC(C)=O)CO[C@@H]1C[C@@H]2O [Paclitaxel, paclitaxel, reference compound]
mechanical nociceptive threshold after chemotherapy [4]: decreased mechanical nociceptive threshold

hyaluronan [low molecular weight hyaluronan, reference compound]
nociceptive effect of intradermal injection [5]: induced hyperalgesia

hyaluronan [150-300 kDa hyaluronan]
CIPN hyperalgesia, effect of hyaluronan molecular weight range [1]: produced robust anti-hyperalgesia, of similar magnitude and duration

CCCCC[C@H](O)/C=C/[C@H]1[C@H](O)CC(=O)[C@@H]1C/C=C\CCCC(=O)O [PGE2, prostaglandin E2, reference compound]
mechanical hyperalgesia after intradermal PGE2 [6]: produced robust mechanical hyperalgesia
